Results on six compounds are retold here after ChEMBL document CHEMBL1275505, “Smqnr, a new chromosome-carried quinolone resistance gene in Stenotrophomonas maltophilia” (2008).

Type in all cases: functional
The subject of assay [1] is Escherichia coli. Kind of assay: Antimicrobial activity against Escherichia coli TOP10 harboring pSmQnr9 carrying Smqnr gene by Etest.
The test system of assay [2] is Escherichia coli. Kind of assay: Antimicrobial activity against Escherichia coli TOP10 harboring pSmQnr4 carrying Smqnr gene by Etest.
Assay [3] deals with Escherichia coli. Kind of assay: Antimicrobial activity against Escherichia coli TOP10 harboring pSmQnr7 carrying Smqnr gene by Etest.
The test system of assay [4] is Escherichia coli. Description: Antimicrobial activity against Escherichia coli TOP10 harboring pSmQnr1 carrying Smqnr gene by Etest.
Assay [5] deals with Escherichia coli. Kind of assay: Antimicrobial activity against Escherichia coli TOP10 harboring pSmQnr6 carrying Smqnr gene by Etest.
For assay [6], the system named is Escherichia coli. Kind of assay: Antimicrobial activity against Escherichia coli TOP10 by Etest.
The subject of assay [7] is Escherichia coli. Description: Antimicrobial activity against Escherichia coli TOP10 harboring pSmQnr8 carrying Smqnr gene by Etest.
The test system of assay [8] is Escherichia coli. Kind of assay: Antimicrobial activity against Escherichia coli TOP10 harboring pSmQnr3 carrying Smqnr gene by Etest.
The subject of assay [9] is Escherichia coli. Description: Antimicrobial activity against Escherichia coli TOP10 harboring pSmQnr10 carrying Smqnr gene by Etest.
In assay [10] the test system is Escherichia coli. Description: Antimicrobial activity against Escherichia coli TOP10 harboring pSmQnr11 carrying Smqnr gene by Etest.
Assay [11] has as its system Escherichia coli. Kind of assay: Antimicrobial activity against Escherichia coli TOP10 harboring pSmQnr5 carrying Smqnr gene by Etest.
Assay [12] relates to Escherichia coli. Description: Antimicrobial activity against Escherichia coli TOP10 harboring pSmQnr2 carrying Smqnr gene by Etest.

In brackets after ≈: the same amount, converted by molar mass.

As to `COc1c(N2CCNC(C)C2)c(F)cc2c(=O)c(C(=O)O)cn(C3CC3)c12` (stereo unspecified) [GATIFLOXACIN], the MIC is 0.002 µg/mL (≈ 0.00533 µM) in [1]; 0.002 µg/mL (≈ 0.00533 µM) in assay [2]; 0.023 µg/mL (≈ 0.0613 µM) in assay [3]; 0.008 µg/mL (≈ 0.0213 µM) in assay [4]; 0.064 µg/mL (≈ 0.17 µM) in assay [5]; less than 0.002 µg/mL in assay [6]. In addition, the MIC in [7] came to 0.002 µg/mL (≈ 0.00533 µM); in [8], 0.003 µg/mL (≈ 0.00799 µM); in assay [9] it was 0.003 µg/mL (≈ 0.00799 µM); in [10], 0.003 µg/mL (≈ 0.00799 µM).

As for `C[C@H]1COc2c(N3CCN(C)CC3)c(F)cc3c(=O)c(C(=O)O)cn1c23.C[C@H]1COc2c(N3CCN(C)CC3)c(F)cc3c(=O)c(C(=O)O)cn1c23.O` [LEVOFLOXACIN], the minimal inhibitory concentration (MIC) in [2] worked out at 0.006 µg/mL; in assay [3] it was 0.023 µg/mL; in assay [4], 0.023 µg/mL; in [5], 0.023 µg/mL; in assay [6] it was 0.004 µg/mL; in assay [8], 0.006 µg/mL. In assay [9], this compound gave an MIC of 0.023 µg/mL.

As to `COc1c(N2C[C@@H]3CCCN[C@@H]3C2)c(F)cc2c(=O)c(C(=O)O)cn(C3CC3)c12` [MOXIFLOXACIN], the MIC is 0.002 µg/mL (≈ 0.00498 µM) in [2]; 0.008 µg/mL (≈ 0.0199 µM) in [3]; 0.012 µg/mL (≈ 0.0299 µM) in assay [4]; 0.047 µg/mL (≈ 0.117 µM) in [5]; less than 0.002 µg/mL in assay [6]; 0.002 µg/mL (≈ 0.00498 µM) in [7]. Also, the minimum inhibitory concentration (MIC) in assay [8] turned out to be 0.002 µg/mL (≈ 0.00498 µM); in assay [9], 0.004 µg/mL (≈ 0.00996 µM); in assay [11], 0.003 µg/mL (≈ 0.00747 µM); in assay [10], 0.002 µg/mL (≈ 0.00498 µM).

Consider `CCn1cc(C(=O)O)c(=O)c2ccc(C)nc21` [NALIDIXIC ACID], for which the MIC in [1] worked out at 1.5 µg/mL (≈ 6.46 µM); in assay [2], 1.5 µg/mL (≈ 6.46 µM); in assay [3] it was 2 µg/mL (≈ 8.61 µM); in assay [4], 3 µg/mL (≈ 12.9 µM); in assay [5], 2 µg/mL (≈ 8.61 µM); in [6], 1.5 µg/mL (≈ 6.46 µM). Further, the MIC in [12] is 2 µg/mL (≈ 8.61 µM); in assay [7], 2 µg/mL (≈ 8.61 µM); in assay [8] it was 1.5 µg/mL (≈ 6.46 µM); in [9], 2 µg/mL (≈ 8.61 µM); in assay [11] it was 2 µg/mL (≈ 8.61 µM); in assay [10] it was 2 µg/mL (≈ 8.61 µM).

Regarding `CCn1cc(C(=O)O)c(=O)c2cc(F)c(N3CCNCC3)cc21` [NORFLOXACIN], the MIC in assay [1] is 0.032 µg/mL (≈ 0.1 µM); in [2], 0.032 µg/mL (≈ 0.1 µM); in assay [3], 0.047 µg/mL (≈ 0.147 µM); in assay [4] it was 0.064 µg/mL (≈ 0.2 µM); in assay [5], 0.064 µg/mL (≈ 0.2 µM); in assay [6], 0.032 µg/mL (≈ 0.1 µM). Moreover, the MIC in assay [12] amounted to 0.047 µg/mL (≈ 0.147 µM); in assay [7] it was 0.047 µg/mL (≈ 0.147 µM); in assay [8], 0.032 µg/mL (≈ 0.1 µM); in assay [9], 0.032 µg/mL (≈ 0.1 µM); in assay [11] it was 0.032 µg/mL (≈ 0.1 µM); in assay [10], 0.032 µg/mL (≈ 0.1 µM).

Consider `C[C@@H]1CN(c2c(F)c(N)c3c(=O)c(C(=O)O)cn(C4CC4)c3c2F)C[C@H](C)N1` [SPARFLOXACIN], for which the MIC was 0.008 µg/mL (≈ 0.0204 µM) in assay [3]; 0.004 µg/mL (≈ 0.0102 µM) in assay [4]; 0.125 µg/mL (≈ 0.319 µM) in assay [5]; less than 0.002 µg/mL in [6]; 0.002 µg/mL (≈ 0.0051 µM) in [9].
